Where two headings read alike, the source gives them in different places.
Key:
L-type calcium channels = biological target: T1, L-type calcium channels (Rattus norvegicus, UniProt P22002); assay: Antagonistic activity on L-type calcium channels (relaxation of KCl-induced contraction of isolated rat thoracic aorta); conditions: isolated Wistar rat thoracic aorta; for L-type inhibition pIC50: Table 21
T1 construct: The thoracic aorta isolated from a Wistar rat was cut to obtain ring-shaped samples; from tissue; host or cells: isolated Wistar rat thoracic aorta rings, endothelium removed
Description: (Test Example) Antagonistic Activity on L-Type Calcium Channels:
The activity of the dihydropyrimidine derivatives of the present invention to inhibit L-type calcium channels was determined by the following method in which the relaxation reaction on the KCl-induced contraction of isolated rat thoracic aorta was employed.
1) Method of Preparation of Rat Thoracic Aorta:
The thoracic aorta isolated from a Wistar rat was cut to obtain ring-shaped samples having a width of about 3 mm. The endothelial cells of the samples were mechanically removed. The samples were then suspended in a strain gage in Tyrode's solution (158.3 mM of NaCl, 4.0 mM of KCl, 1.05 mM of MgCl2, 0.42 mM of NaH2PO4, 10 mM of NaHCO, 2 mM of CaCl2 and 5 mM of glucose) in which a gaseous mixture of O2 (95%) and CO2 (5%) was introduced. A static tension of 2 g was applied hereto. The tension of the blood vessel was amplified with a transducer and a tension amplifier (EF-601G; Nihon Koden Corporation) and recorded with a multi-pen recorder (Rikadenki Kogyo Co., Ltd.). The experiments were conducted at 37° C.
2) Measurment of Relaxation Response Against KCl-Induced Contraction:
After the tension had been stabilized, the solution in the sample tank was replaced with High K^+ Tyrode's solution (112.3 mM of NaCl, 50 mM of KCl, 1.05 mM of MgCl2, 0.42 mM of NaH2PO4, 10 mM of NaHCO3, 2 mM of CaCl2 and 5 mM of glucose) to conduct the contraction reaction. Thirty minutes after, the solution in the sample tank was replaced with the normal Tyrode's solution. The solution in the sample tank was again replaced with the High K^+ Tyrode's solution and the contraction reaction was observed. After attaining the maximum contraction reaction, the test compound was cumulatively added at intervals of […] to attain concentrations of 10^−9, 10^−8, 10^−7 and 10^−6 M. The inhibitory rate of the test compound on the maximum contraction reaction was employed as the index of the inhibition activity on L-type calcium channels.

N-type calcium channels = biological target: T2, N-type calcium channels (Homo sapiens, UniProt Q00975); assay: Antagonistic activity on N-type calcium channels (fluorescence dye method, IMR-32 cells); format: cell-based; conditions: for inhibition at 10 µM: 10 μM test compound, read-out: N-type inhibition (inhibition rate (%) at 10 μM); for IC50: 60 mM KCl stimulation, 1 μM Nifedipine, Table 20, read-out: N-type inhibition pIC50 (converted)
T2 construct: Human neuroblastoma cells IMR-32 were obtained from ATCC; host or cells: IMR-32 human neuroblastoma cells, differentiated with dibutyl cAMP and 5-bromodeoxyuridine
T2 sequence (Q00975 whole entry): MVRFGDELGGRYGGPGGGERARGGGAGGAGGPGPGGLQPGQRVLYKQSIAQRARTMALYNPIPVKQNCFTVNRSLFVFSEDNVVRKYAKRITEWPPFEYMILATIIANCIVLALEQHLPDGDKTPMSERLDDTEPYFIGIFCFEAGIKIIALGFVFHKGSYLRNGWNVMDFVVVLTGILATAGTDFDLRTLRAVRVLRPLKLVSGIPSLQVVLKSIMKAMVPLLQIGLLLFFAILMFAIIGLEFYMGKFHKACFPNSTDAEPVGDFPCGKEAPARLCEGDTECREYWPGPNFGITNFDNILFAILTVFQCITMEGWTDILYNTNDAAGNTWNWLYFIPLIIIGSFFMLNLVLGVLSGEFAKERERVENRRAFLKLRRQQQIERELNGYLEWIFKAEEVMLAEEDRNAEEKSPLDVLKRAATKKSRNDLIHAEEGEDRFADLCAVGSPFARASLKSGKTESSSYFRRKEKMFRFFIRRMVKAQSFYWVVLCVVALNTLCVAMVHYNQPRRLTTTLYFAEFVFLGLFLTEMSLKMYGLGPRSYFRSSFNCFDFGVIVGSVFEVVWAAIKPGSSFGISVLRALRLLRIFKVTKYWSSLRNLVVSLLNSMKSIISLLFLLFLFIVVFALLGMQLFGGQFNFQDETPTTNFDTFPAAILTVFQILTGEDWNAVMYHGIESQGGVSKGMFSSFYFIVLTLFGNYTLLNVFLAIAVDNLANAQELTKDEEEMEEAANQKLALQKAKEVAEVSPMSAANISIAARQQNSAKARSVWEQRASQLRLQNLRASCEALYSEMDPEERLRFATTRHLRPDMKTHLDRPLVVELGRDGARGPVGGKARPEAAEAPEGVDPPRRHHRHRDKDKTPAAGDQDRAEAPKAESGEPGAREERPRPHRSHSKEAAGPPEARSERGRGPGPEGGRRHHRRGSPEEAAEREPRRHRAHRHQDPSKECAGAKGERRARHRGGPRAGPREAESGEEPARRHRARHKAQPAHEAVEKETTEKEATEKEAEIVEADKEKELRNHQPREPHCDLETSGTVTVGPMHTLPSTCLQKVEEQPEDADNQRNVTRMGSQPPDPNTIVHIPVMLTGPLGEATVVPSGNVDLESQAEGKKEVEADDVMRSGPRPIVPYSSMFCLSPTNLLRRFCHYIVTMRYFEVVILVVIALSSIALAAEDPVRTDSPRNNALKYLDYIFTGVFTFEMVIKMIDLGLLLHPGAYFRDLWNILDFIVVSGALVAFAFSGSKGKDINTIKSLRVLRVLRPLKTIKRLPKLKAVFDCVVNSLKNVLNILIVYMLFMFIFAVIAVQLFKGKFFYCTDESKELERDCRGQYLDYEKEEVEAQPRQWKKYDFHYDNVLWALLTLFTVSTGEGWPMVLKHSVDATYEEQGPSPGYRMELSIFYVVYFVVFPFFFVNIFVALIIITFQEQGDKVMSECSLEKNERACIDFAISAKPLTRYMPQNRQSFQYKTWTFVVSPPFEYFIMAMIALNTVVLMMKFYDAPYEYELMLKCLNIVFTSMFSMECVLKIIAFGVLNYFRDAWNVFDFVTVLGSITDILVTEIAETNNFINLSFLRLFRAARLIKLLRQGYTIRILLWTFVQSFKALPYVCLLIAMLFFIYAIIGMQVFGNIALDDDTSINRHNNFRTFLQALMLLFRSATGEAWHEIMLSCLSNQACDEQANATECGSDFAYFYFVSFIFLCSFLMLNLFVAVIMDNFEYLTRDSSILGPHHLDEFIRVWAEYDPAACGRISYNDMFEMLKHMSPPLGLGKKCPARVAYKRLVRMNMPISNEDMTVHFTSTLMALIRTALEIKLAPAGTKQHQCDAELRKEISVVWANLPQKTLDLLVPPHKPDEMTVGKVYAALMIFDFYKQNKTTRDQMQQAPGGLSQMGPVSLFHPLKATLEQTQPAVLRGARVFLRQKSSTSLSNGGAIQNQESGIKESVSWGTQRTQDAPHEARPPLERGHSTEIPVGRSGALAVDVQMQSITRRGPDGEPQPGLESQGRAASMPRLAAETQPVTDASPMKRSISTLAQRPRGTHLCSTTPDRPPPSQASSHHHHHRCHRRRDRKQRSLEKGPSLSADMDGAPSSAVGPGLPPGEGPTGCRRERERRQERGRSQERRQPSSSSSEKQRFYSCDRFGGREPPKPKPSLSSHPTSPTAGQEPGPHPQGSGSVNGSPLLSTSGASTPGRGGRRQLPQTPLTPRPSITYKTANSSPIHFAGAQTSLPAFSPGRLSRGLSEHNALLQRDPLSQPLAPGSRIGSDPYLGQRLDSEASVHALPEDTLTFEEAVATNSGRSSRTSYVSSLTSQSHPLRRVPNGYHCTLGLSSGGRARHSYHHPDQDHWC
T2 sequence (Q02641 whole entry partner): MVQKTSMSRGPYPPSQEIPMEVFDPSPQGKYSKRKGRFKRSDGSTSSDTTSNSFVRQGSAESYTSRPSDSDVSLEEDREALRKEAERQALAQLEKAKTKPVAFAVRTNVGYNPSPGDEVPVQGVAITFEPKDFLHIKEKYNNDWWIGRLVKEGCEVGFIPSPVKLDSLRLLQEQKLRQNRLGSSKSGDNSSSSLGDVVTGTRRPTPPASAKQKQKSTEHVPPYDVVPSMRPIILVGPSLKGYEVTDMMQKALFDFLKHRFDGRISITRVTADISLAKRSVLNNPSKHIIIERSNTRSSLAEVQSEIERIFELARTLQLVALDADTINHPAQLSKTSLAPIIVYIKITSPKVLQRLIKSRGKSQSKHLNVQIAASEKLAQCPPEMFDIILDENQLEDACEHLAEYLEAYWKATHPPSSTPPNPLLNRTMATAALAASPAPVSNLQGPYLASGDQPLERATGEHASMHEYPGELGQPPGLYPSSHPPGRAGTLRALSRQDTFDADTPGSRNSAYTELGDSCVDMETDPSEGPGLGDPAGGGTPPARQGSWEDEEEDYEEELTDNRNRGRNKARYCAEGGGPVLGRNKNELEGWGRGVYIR
T2 sequence (P54289 25-956 partner limits assumed): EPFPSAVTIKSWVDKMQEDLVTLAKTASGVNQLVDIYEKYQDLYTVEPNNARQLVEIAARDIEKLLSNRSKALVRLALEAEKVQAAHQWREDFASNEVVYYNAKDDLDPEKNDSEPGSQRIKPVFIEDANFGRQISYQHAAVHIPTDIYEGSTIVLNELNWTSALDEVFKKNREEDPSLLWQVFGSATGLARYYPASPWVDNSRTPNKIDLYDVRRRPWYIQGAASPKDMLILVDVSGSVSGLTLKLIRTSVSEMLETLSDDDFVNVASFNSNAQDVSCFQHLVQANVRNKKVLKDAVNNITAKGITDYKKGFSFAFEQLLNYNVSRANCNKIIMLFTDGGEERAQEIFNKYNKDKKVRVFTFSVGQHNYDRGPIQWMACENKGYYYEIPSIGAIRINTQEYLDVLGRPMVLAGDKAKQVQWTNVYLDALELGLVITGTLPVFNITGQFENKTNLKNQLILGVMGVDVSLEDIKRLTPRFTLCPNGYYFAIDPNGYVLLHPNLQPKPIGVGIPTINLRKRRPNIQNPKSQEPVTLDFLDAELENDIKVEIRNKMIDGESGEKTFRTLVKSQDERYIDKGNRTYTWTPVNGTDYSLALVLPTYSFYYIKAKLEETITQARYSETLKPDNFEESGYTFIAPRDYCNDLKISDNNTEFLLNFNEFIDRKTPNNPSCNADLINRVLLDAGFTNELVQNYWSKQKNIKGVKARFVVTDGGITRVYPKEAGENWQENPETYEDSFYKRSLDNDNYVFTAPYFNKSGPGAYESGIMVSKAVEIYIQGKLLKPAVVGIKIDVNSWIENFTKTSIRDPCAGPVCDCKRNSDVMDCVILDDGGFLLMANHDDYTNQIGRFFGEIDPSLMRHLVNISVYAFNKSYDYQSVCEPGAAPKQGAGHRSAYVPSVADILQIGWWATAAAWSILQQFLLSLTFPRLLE
T2 sequence (P54289 957-1103 partner limits assumed): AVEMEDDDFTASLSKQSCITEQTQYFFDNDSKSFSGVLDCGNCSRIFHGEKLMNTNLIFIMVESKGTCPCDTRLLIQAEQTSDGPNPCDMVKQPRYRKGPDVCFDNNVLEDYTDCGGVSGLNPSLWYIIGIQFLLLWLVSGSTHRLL
Description: (Test Example) Antagonistic Activity on N-Type Calcium Channels (Fluorescence Dye Method):
Human neuroblastoma cells IMR-32 were obtained from ATCC (American Type Culture Collection). The medium used was a phenol red-free Eagle minimum essential medium containing earle's salts (GIBCO) supplemented with 2 mM of L-glutamine (GIBCO), 1 mM of sodium pyruvate (pH 6.5) (GIBCO), antibiotic/antimicotic mixture (GIBCO) and 10% fetal calf serum (Cell Culture Technologies). Three ml of 1×10^5 cells/ml IMR-32 were spread on a 35 mm diameter glass dish (Iwaki Glass Co., Ltd.) which was treated with poly-L-lysin (SIGMA) and collagen (COLLAGEN VITROGEN 100, Collagen Co.). One day after cultivation, 1 mM (final concentration) of dibutyl cAMP and 2.5 μM (final concentration) of 5-bromodeoxyuridine (SIGMA) were added. After the culture for additional 10 to 14 days, the cells were subjected to the activity determination.
The medium for IMR-32 cells thus prepared was replaced with 1 ml of Phenol Red-free Eagle minimum essential medium (GIBCO) containing 2.5 μM fura-2/AM (Dojin Kagaku, Co.) and earle's salts supplement, and the incubation was conducted at 37° C. for 30 minutes. Then the medium was replaced with a recording medium (20 mM of HEPES-KOH, 115 mM of NaCl, 5.4 mM of KCl, 0.8 mM of MgCl2, 1.8 mM of CaCl2 and 13.8 mM of D-glucose). Antagonistic activity on N-type calcium channels was determined and analyzed using a fluorescence microscope (Nikon Corporation) and an image analysis device ARGUS 50 (Hamamatsu Photonics). In particular, a recording medium (20 mM of HEPES-KOH, 115 mM of NaCl, 5.4 mM of KCl, 0.8 mM of MgCl2, 1.8 mM of CaCl2 and 13.8 mM of D-glucose) containing 1 μM of Nifedipine was given to the cells by reflux by a Y-tube method for 2 minutes. Then a stimulating agent containing 60 mM of potassium chloride was rapidly given by the Y-tube method. The calcium concentration change in the cells was examined in terms of N-type calcium channel activity. Stimulating agents containing 60 mM of potassium chloride and 0.1, 1 or 10 μM of test compound were successively and rapidly given to the same cells by the Y-tube method to determine the change in calcium concentration in the cells on this occasion. Antagonistic activity on N-type calcium channel was thus calculated from the inhibition rates.
The same procedure as that of the above-described tests of the N-type calcium channel antagonistic activity of the compounds obtained in the Examples was repeated except for the following changes: stimulating agents containing 60 mM of potassium chloride and 0.1, 1 or 10 μM of test compound were successively and rapidly given by the Y-tube method. A change in calcium concentration in the cells was determined.

SD rats = assay: Analgesic action in the formalin test; format: in vivo, rat; conditions: 3 mg/kg p.o. 3 hours before formalin injection, counted for 60 minutes, average±standard error, control group 116 ± 8
Description: (Test Example) Determination of Analgesic Action (Analgesic Action in the Formalin Test) 1) Preparation of Solution of a Test Compound and its Administration
The compound was weighed and ground in a mortar. While grinding the powder, 0.5% tragacanth solution was added thereto so that a suspension was prepared to have a concentration of 0.6 mg/ml.
Three hours before the formalin injection, the compound suspension was orally administered to SD rats at a volume of 5 ml/kg (dosage; 3 mg/kg, p.o.). In the control group, 0.5% tragacanth solution was orally administered to SD rats at a volume of 5 ml/kg 3 hours before formalin injection.
2) Determination of Analgesic Action in the Formalin Test
The SD rats to which the compound was administered were introduced to a capsule. They were settled under halothane (2 to 4% in 3 L/min of oxygen gas flow rate) and 100 μl of 5% formalin solution was injected subcutaneously to their dorsal surface of left legs. After injection, determination was started when the rats came out from the anesthetic state (based on recovery of righting reflex). The number of flinching under the influence of formalin injection was counted for 60 minutes (Reference: J. Neurosci. 14: 4882-4890 (1994)). The results are shown as “average±standard error” in Table 22.

[1] = Table 20, read-out: L-type inhibition pIC50 (converted)
[2] = Table 21, read-out: L-type inhibition pIC50 (converted)

| SMILES | IC50 (L-type calcium channels; [1]) [nM] | L-type inhibition pIC50 (L-type calcium channels) | inhibition at 10 µM (N-type calcium channels) [%] | IC50 (N-type calcium channels) [nM] | IC50 (L-type calcium channels; [2]) [nM] | Flinching (number) (SD rats) |
| --- | --- | --- | --- | --- | --- | --- |
| CSc1nc(C)c(C(=O)NC/C=C/c2ccccc2)c(-c2cccc(Cl)c2)n1 [Example 1, 4-(3-chlorophenyl)-6-methyl-2-(methylthio)-N-(3-phenyl-2-propen-1-yl)-5-pyrimidinecarboxamide] | 2510 | 5.6 | 52 | 1580 | – | – |
| CSc1nc(C)c(C(=O)NCCCc2ccccc2)c(-c2ccc(C)cc2C)n1 [Example 93, 4-(2,4-dimethylphenyl)-6-methyl-2-(methylthio)-N-(3-phenylpropyl)-5-pyrimidinecarboxamide] | – | – | 63 | – | 5010 | 39 ± 11 |
| Cc1nc(C)c(C(=O)N2CCNCC2)c(-c2cccc(Cl)c2)c1C(=O)OCCC(c1ccccc1)c1ccccc1 [Example 122, 4-(3-chlorophenyl)-2,6-dimethyl-5-(piperazine-1-carbonyl)nicotinic acid (3,3-diphenylpropyl) ester] | 1000 | 6.0 | 56 | 1580 | – | 61 ± 16 |
| CSc1nc(C)c(C(=O)NCCCc2ccccc2)c(-c2cccc(Cl)c2)n1 [Example 16, 4-(3-chlorophenyl)-6-methyl-2-(methylthio)-N-(3-phenylpropyl)-5-pyrimidinecarboxamide] | 3160 | 5.5 | 58 | 2000 | – | – |

The next lines start with results.

| IC50 (L-type calcium channels; [1]) [nM] | L-type inhibition pIC50 (L-type calcium channels) | inhibition at 10 µM (N-type calcium channels) [%] | IC50 (N-type calcium channels) [nM] | IC50 (L-type calcium channels; [2]) [nM] | SMILES | Flinching (number) (SD rats) |
| --- | --- | --- | --- | --- | --- | --- |
| – | – | 77 | – | 2510 | CSc1nc(C)c(C(=O)NCCCc2ccccc2)c(-c2c(Cl)cccc2Cl)n1 [Example 110, 4-(2,6-dichlorophenyl)-6-methyl-2-(methylthio)-N-(3-phenylpropyl)-5-pyrimidinecarboxamide] | – |
| – | – | 70 | – | 1260 | Cc1nc(C)c(C(=O)N2CCN(C)CC2)c(-c2cccc(Cl)c2)c1C(=O)OCCC(c1ccccc1)c1ccccc1 [Example 125, 4-(3-chlorophenyl)-2,6-dimethyl-5-(4-methylpiperazine-1-carbonyl)nicotinic acid (3,3-diphenylpropyl) ester] | 62 ± 25 |
| – | – | 74 | – | 3980 | CCc1nc(C)c(C(=O)NCCCc2ccccc2)c(-c2cc(Cl)cc(Cl)c2)n1 [Example 103, 2-ethyl-4-(3,5-dichlorophenyl)-6-methyl-N-(3-phenylpropyl)-5-pyrimidinecarboxamide] | – |

Source: patent publication US7288544B2, “Pyrimidine compounds useful as N-type calcium channel antagonists” (Ajinomoto Co., Inc., priority 2000, dated 2007)
